Assay results taken from EPA's ToxValDB 9.5.

What was measured:
Canidae [1] = details: repeat dose other; inhalation; Dog Other
Cavia sp. = details: repeat dose other; inhalation
Mus musculus [2] = tested on: Mus musculus
Rattus norvegicus [3] = details: for LD50: acute
Mus musculus [4] = details: chronic, oral, diet, B6C3F1
Rattus norvegicus [5] = details: oral, M/F
Oryctolagus sp. [6] = details: developmental; duration: 12 days; oral; gavage; F; New Zealand; developmental
Cavia porcellus = details: repeat dose other; oral; Guinea Pig
Homo sapiens [7] = details: clinical; duration: 5 months; oral; M/F; Hematologic, Urinary
Homo sapiens [8] = details: clinical; oral; diet; M; rbc che depression
Homo sapiens [9] = details: clinical; duration: 56 days; oral; capsule; M; neurological
Oryctolagus sp. [10] = details: acute; duration: 1 days; inhalation; M; New Zealand; neurological
Rattus norvegicus [11] = details: M/F; for NOAEL: chronic, duration: 2 years, oral, diet, neurological
Homo sapiens [12] = details: clinical, oral, capsule
Rattus norvegicus [13] = details: reproduction developmental; oral; M/F; Reduced body weight gain preceding pregnancy reduced body weight gain in offspring during weaning period
Canidae [14] = details: chronic; duration: 26 weeks; oral; capsule; M/F; Beagle; gastrointestinal
Canidae [15] = details: duration: 26 weeks, oral, capsule, M/F, Beagle, Liquid feces
Rattus norvegicus [16] = details: duration: 7 days, oral, M, Reduced proportion of time spent in open field central zones, increased immobility time in the open field, reduced proportion of time spent …
Oryctolagus sp. [17] = details: duration: 7 days, oral, gavage, New Zealand
Oryctolagus sp. [18] = experiment: LD0; higher = less toxic; details: acute; dermal; occlusive; New Zealand
Rattus norvegicus [19] = details: oral
Canidae [20] = details: chronic; duration: 52 weeks; oral; capsule; M/F; Beagle; hepatic
Gallus gallus = details: repeat dose other; oral
Rattus norvegicus [21] = experiment: LD0; higher = less toxic; details: acute; inhalation; Crj:CD
[22] = short-term, duration: 28 days, oral, diet, Fischer 344

Q: Which results are given for `C#C` [Ethyne]?
A: NOAEL (Canidae [1]): 852000 mg/m3; NOAEL (Cavia sp.): 852000 mg/m3; NOAEL (Mus musculus [2]; repeat dose other, inhalation): 852000 mg/m3; NOAEL (Rattus norvegicus [3]; repeat dose other, inhalation): 852000 mg/m3

Q: `Cc1ccc([N+](=O)[O-])cc1N` [C.I. Azoic Diazo Component 12] was tested. Which LOAEL (Mus musculus [4]; duration: 78 weeks, F) did it give?
A: The LOAEL was 207 mg/kg-day.

Q: What does the source list for `Cc1ccc(O)cc1` [p-Cresol]?
A: NOAEL (Rattus norvegicus [5]; short-term, duration: 28 days, diet, Fischer 344, Clinical Observation: Hunched posture Rough hair coat + Body Weight Changes: Mean body weight decrease + Food Consumption: decrease + …): 1000 ppm; NOAEL (Rattus norvegicus [5]; subchronic, duration: 13 weeks, gavage, Sprague-Dawley, Deaths + Clinical Observation: Lethargy Tremors Convulsions Coma: + Body Weight Changes: Mean body weight decrease, Body weight gain …): 50 mg/kg-day; NOAEL (Oryctolagus sp. [6]): 5 mg/kg-day

Q: How did the LOAEL (Cavia porcellus) turn out when `O=[N+]([O-])[O-].[K+]` [Potassium nitrate] was run?
A: The LOAEL was 1130 mg/kg-day.

Q: And the NOAEL (Cavia porcellus)?
A: Its NOAEL is 507 mg/kg-day.

Q: `Oc1ccc(O)cc1` [Hydroquinone] was tested. Which NOEL (Rattus norvegicus [5]; subchronic, duration: 13 weeks, gavage, Fischer 344, Deaths + Clinical Observation: Tremors Convulsions + Body Weight Changes: decrease + Absolute Organ Weight: Liver increase + Relative Organ …) did it give?
A: The NOEL was 25 mg/kg-day.

Q: What about the NOAEL (Homo sapiens [7]) of the same compound?
A: Its NOAEL is 4.3 mg/kg-day.

Q: How did the LEL (Homo sapiens [8]) turn out when `CCOC(=O)CC(SP(=S)(OC)OC)C(=O)OCC` (stereo not drawn) [Malathion] was run?
A: Its LEL is 0.34 mg/kg-day.

Q: And the NOEL (Homo sapiens [8])?
A: Its NOEL is 0.23 mg/kg-day.

Q: And the NOAEL (Homo sapiens [9])?
A: The NOAEL was 0.23 mg/kg-day.

Q: What about the NOAEL (Oryctolagus sp. [10]) of the same compound?
A: The NOAEL was 65 mg/m3.

Q: And the NOAEL (Rattus norvegicus [11]; Fischer-344)?
A: The NOAEL was 2 mg/kg-day.

Q: And the LOAEL (Rattus norvegicus [11]; subchronic, duration: 13 weeks, inhalation, whole body, Sprague-Dawley, respiratory)?
A: The LOAEL was 100 mg/m3.

Q: What about the NOEL (Homo sapiens [12]; duration: 47 days, Blood: Hematological effects) of the same compound?
A: The NOEL was 0.23 mg/kg-day.

Q: How did the LEL (Rattus norvegicus [13]) turn out when `CC1(C)C(C=C(Cl)C(F)(F)F)C1C(=O)OC(C#N)c1cccc(Oc2ccccc2)c1` (stereo not drawn) [alpha-Cyhalothrin] was run?
A: The LEL was 1.5 mg/kg-day.

Q: And the NOEL (Rattus norvegicus [13])?
A: Its NOEL is 0.5 mg/kg-day.

Q: And the NOAEL (Canidae [14])?
A: Its NOAEL is 1 mg/kg-day.

Q: And the LOEL (Canidae [15]; chronic)?
A: The LOEL was 1 mg/kg-day.

Q: What about the LOEL (Canidae [15]) of the same compound?
A: The LOEL was 1 mg/kg-day.

Q: What about the NOEL (Rattus norvegicus [16]; neurotoxicity) of the same compound?
A: The NOEL was 1 mg/kg-day.

Q: And the NOEL (Rattus norvegicus [16]; short-term)?
A: Its NOEL is 1 mg/kg-day.

Q: `Nc1ccc([N+](=O)[O-])cc1` [4-Nitrobenzenamine] was tested. Which NOAEL (Oryctolagus sp. [17]; developmental) did it give?
A: The NOAEL was 125 mg/kg-day.

Q: And the NOAEL (Oryctolagus sp. [17]; reproduction developmental, generation: F1)?
A: Its NOAEL is 125 mg/kg-day.

Q: And the LD50 (Rattus norvegicus [3]; oral, gavage, Sprague-Dawley)?
A: The LD50 was 1400 mg/kg.

Q: What about the NOAEL (Rattus norvegicus [3]; reproduction developmental, duration: 90 days, oral, gavage, Sprague-Dawley) of the same compound?
A: The NOAEL was less than 3 mg/kg-day.

Q: And the NOAEL (Rattus norvegicus [3]; reproduction developmental, duration: 167 days, oral, gavage, Sprague-Dawley, generation: F0)?
A: Its NOAEL is 1.5 mg/kg-day.

Q: What about the NOAEL (Rattus norvegicus [3]; reproduction developmental, duration: 167 days, oral, gavage, Sprague-Dawley, generation: F1) of the same compound?
A: Its NOAEL is 9000 mg/kg-day.

Q: And the LD0 (Oryctolagus sp. [18])?
A: The LD0 was greater than 7940 mg/kg.

Q: What does the source list for `CCOP(=S)(OCC)Oc1nc(Cl)c(Cl)cc1Cl` [Chlorpyrifos]?
A: NOEL (Rattus norvegicus [5]; short-term, duration: 28 days, gavage, Wistar, Body Weight Changes: Weight gain decrease + Food Consumption: decrease + Blood Chemistry: T-Cho decrease TG decrease ALP increase Ch E …): 0.1 mg/kg-day; NOAEL (Rattus norvegicus [11]; Sherman Wistar): 0.1 mg/kg-day; NOEL (Rattus norvegicus [19]; Hershberger, duration: 10 days, gavage, Sprague-Dawley, inactive + Negative + Negative + anti-androgenic + negative): 2 mg/kg-day; LEL (Rattus norvegicus [19]; uterotrophic, duration: 56 days, Active): 0.1 mg/kg-day; NOEL (Homo sapiens [12]; duration: 20 days, Blood: Decreased cholinesterase activity): 0.03 mg/kg-day

Q: With `COC(=O)c1cc(Oc2ccc(Cl)cc2Cl)ccc1[N+](=O)[O-]` [Bifenox] as the compound, how does the NOAEL (Canidae [20]) read?
A: The NOAEL was 145 mg/kg-day.

Q: And the LOAEL (Mus musculus [4]; duration: 2 years, M/F, Urinary)?
A: The LOAEL was 7 mg/kg-day.

Q: With `O.O.[Na+].[Na+].[O]=[Mo](=[O])([O-])[O-]` [Sodium molybdate (Na2MoO4) dihydrate] as the compound, how does the LOAEL (Gallus gallus) read?
A: The LOAEL was 35.3 mg/kg-day.

Q: What about the NOAEL (Gallus gallus) of the same compound?
A: The NOAEL was 3.5 mg/kg-day.

Q: What does the source list for `CCCCC(CC)COC(=O)c1ccc(C(=O)OCC(CC)CCCC)c(C(=O)OCC(CC)CCCC)c1` (stereo not drawn) [Tris(2-ethylhexyl) trimellitate]?
A: LD50 (Mus musculus [2]; acute, oral, gavage): > 3200 mg/kg; LD50 (Rattus norvegicus [3]; oral, gavage): > 3200 mg/kg; LD50 (Rattus norvegicus [3]; oral, gavage, Crj:CD): > 2000 mg/kg; NOAEL (Rattus norvegicus [3]; reproduction developmental, duration: 20 days, oral, gavage, Crj:CD, generation: F1): 1000 mg/kg-day; NOAEL (Rattus norvegicus [3]; reproduction developmental, duration: 20 days, oral, gavage, F, Crj:CD): 1000 mg/kg-day; NOAEL (Rattus norvegicus [3]; reproduction developmental, duration: 20 days, oral, gavage, M, Crj:CD): 100 mg/kg-day; LOAEL (Rattus norvegicus [3]; [22]): 650 mg/kg-day; NOAEL (Rattus norvegicus [3]; [22]): 184 mg/kg-day; NOAEL (Rattus norvegicus [3]; short-term, duration: 28 days, oral, gavage, F, Crj:CD): > 1000 mg/kg-day; NOAEL (Rattus norvegicus [3]; short-term, duration: 28 days, oral, gavage, M, Crj:CD): > 1000 mg/kg-day; LD0 (Rattus norvegicus [21]): 2600 mg/m3
